Laboratory results published in ChEMBL document CHEMBL1150977, “A quantitative analysis of kinase inhibitor selectivity” (Nat Biotechnol, 2008).

Tests used:
[1] = target: Serine/threonine-protein kinase 24 (Homo sapiens, UniProt Q9Y6E0)
[2] = target: BDNF/NT-3 growth factors receptor (Homo sapiens, UniProt Q16620)
Activated CDC42 kinase 1 = Activated CDC42 kinase 1 (Homo sapiens, UniProt Q07912)
SRSF protein kinase 2 = SRSF protein kinase 2 (Homo sapiens, UniProt P78362)
[3] = target: Citron Rho-interacting kinase (Homo sapiens, UniProt O14578)
Sequence of Citron Rho-interacting kinase (O14578 whole entry): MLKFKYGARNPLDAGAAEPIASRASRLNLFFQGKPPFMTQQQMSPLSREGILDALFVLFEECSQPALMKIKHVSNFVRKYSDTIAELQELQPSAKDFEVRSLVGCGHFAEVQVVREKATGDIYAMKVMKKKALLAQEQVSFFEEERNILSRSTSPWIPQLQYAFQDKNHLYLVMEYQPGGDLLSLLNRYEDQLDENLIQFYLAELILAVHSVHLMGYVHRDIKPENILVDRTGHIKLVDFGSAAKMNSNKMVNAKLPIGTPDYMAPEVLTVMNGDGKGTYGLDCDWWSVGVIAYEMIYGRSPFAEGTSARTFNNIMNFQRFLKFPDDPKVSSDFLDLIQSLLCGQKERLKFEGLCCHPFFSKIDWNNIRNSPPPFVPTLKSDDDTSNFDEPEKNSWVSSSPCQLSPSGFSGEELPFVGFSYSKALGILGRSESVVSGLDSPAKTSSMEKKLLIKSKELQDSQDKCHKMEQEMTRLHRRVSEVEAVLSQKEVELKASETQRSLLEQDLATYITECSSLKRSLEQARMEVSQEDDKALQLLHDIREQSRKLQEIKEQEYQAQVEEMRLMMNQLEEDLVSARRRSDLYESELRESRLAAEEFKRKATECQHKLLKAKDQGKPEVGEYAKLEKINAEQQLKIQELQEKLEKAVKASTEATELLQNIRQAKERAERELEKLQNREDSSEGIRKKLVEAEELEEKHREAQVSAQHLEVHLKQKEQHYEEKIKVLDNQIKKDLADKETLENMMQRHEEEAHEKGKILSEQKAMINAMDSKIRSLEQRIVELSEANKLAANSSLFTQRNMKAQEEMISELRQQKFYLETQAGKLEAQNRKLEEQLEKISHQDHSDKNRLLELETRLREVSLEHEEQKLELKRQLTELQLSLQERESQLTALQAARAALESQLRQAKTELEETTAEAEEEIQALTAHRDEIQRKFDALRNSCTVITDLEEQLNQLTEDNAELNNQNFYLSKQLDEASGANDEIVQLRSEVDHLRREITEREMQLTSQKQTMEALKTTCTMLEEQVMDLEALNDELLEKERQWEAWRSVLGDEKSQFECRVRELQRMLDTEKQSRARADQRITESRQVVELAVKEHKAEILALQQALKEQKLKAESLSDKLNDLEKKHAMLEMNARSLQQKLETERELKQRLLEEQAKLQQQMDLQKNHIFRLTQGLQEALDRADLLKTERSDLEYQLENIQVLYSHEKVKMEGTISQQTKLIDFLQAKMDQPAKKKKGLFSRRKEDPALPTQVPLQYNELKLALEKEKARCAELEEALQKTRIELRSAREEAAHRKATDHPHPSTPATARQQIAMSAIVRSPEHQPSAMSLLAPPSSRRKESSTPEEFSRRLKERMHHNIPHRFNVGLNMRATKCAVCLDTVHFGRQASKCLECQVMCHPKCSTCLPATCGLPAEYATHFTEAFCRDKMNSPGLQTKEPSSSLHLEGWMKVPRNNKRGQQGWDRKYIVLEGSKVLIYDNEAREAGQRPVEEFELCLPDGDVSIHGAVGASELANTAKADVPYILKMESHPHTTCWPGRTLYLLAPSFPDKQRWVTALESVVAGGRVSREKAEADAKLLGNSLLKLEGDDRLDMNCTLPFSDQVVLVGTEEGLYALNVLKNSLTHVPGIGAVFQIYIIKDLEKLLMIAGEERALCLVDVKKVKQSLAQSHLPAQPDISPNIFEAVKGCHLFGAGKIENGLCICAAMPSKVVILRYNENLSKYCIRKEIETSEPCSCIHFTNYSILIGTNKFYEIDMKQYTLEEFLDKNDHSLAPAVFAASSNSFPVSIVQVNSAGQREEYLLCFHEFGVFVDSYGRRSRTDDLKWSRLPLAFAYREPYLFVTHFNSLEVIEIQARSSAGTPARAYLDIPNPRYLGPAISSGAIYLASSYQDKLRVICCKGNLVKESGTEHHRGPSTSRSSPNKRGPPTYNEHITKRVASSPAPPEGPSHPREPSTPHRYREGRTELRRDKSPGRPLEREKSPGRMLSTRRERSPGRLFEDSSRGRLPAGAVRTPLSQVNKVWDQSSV

[4] = target: T1, Serine/threonine-protein kinase 17A (Homo sapiens, UniProt Q9UEE5)
T1 sequence (Q9UEE5 whole entry): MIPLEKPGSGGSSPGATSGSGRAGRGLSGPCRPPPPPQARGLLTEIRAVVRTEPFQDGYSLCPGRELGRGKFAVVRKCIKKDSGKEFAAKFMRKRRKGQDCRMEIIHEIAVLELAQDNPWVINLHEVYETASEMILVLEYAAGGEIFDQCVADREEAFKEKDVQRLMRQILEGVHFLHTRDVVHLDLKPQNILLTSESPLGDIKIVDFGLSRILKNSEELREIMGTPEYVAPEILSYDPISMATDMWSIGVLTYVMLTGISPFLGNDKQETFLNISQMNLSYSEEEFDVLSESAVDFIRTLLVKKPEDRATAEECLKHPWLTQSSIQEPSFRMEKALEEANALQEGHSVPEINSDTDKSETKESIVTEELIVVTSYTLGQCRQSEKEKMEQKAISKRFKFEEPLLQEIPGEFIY

[5] = target: Serine/threonine-protein kinase PAK 2 (Homo sapiens, UniProt Q13177)
Sequence of Serine/threonine-protein kinase PAK 2 (Q13177 whole entry): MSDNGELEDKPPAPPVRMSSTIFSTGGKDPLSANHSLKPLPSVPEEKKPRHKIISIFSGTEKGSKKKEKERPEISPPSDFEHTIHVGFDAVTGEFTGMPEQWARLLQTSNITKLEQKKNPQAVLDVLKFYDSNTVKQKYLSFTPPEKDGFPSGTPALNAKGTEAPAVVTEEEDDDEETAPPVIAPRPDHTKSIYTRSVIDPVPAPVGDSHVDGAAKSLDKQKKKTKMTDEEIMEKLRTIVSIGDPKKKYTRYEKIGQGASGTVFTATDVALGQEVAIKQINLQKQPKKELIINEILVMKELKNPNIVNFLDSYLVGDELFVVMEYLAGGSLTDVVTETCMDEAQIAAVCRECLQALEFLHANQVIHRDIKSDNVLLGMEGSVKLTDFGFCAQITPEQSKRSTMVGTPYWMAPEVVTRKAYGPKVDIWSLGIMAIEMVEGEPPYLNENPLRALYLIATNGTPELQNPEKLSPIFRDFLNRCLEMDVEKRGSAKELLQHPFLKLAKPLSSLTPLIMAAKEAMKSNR

Ephrin type-B receptor 2 = target: T2, Ephrin type-B receptor 2 (Homo sapiens, UniProt P29323)
T2 sequence (P29323 whole entry): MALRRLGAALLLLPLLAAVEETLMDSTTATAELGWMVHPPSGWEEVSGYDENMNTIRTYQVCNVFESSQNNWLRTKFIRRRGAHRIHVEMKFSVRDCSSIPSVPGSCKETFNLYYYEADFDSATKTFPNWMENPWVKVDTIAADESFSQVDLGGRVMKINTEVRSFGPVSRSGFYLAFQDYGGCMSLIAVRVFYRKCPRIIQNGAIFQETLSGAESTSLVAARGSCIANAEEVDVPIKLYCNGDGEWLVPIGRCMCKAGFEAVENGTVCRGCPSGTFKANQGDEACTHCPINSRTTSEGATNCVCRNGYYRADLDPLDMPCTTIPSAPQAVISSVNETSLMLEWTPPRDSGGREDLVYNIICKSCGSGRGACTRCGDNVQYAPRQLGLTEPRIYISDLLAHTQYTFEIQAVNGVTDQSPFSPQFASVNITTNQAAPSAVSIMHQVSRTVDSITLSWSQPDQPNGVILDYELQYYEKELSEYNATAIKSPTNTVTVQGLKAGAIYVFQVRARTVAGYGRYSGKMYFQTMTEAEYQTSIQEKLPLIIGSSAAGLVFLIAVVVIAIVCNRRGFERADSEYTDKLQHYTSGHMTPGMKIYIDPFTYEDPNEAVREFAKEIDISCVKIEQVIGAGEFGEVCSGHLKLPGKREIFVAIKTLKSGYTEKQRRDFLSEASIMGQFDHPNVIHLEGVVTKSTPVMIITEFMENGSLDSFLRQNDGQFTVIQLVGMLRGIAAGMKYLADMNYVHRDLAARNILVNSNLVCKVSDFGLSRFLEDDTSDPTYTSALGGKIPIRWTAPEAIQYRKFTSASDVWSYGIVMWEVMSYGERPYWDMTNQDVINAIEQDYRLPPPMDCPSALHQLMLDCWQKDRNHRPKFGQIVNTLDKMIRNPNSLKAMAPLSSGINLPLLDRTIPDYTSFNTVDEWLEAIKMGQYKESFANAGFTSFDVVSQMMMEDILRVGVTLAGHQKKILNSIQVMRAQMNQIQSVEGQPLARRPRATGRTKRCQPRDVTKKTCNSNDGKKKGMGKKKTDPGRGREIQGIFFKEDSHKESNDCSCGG

[6] = target: T3, Phosphatidylinositol 5-phosphate 4-kinase type-2 beta (Homo sapiens, UniProt P78356)
T3 sequence (P78356 whole entry): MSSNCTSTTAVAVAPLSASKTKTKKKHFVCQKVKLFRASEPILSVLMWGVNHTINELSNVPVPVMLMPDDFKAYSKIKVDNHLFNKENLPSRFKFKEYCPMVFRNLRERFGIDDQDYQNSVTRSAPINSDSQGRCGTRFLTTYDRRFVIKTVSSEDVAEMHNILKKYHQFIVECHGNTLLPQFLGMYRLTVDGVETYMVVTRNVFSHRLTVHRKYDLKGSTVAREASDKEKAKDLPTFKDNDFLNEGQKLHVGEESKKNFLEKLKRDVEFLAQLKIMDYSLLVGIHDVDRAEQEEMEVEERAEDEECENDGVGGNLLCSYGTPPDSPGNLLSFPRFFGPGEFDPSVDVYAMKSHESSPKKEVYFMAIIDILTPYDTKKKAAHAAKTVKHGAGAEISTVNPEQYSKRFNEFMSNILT

Sequence of Serine/threonine-protein kinase 24 (Q9Y6E0 whole entry): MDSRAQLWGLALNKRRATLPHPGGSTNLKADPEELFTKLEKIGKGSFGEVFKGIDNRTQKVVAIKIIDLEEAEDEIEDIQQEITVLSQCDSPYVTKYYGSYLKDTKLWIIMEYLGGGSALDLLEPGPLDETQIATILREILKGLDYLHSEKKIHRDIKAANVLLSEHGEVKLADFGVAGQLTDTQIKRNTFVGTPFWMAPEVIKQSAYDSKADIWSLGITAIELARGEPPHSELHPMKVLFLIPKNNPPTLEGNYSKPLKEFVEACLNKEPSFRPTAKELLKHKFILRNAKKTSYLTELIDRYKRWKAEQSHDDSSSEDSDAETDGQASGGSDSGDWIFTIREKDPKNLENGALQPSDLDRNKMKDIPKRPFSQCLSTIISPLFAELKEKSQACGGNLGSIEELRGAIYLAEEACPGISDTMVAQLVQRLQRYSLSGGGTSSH
Sequence of Activated CDC42 kinase 1 (Q07912 whole entry): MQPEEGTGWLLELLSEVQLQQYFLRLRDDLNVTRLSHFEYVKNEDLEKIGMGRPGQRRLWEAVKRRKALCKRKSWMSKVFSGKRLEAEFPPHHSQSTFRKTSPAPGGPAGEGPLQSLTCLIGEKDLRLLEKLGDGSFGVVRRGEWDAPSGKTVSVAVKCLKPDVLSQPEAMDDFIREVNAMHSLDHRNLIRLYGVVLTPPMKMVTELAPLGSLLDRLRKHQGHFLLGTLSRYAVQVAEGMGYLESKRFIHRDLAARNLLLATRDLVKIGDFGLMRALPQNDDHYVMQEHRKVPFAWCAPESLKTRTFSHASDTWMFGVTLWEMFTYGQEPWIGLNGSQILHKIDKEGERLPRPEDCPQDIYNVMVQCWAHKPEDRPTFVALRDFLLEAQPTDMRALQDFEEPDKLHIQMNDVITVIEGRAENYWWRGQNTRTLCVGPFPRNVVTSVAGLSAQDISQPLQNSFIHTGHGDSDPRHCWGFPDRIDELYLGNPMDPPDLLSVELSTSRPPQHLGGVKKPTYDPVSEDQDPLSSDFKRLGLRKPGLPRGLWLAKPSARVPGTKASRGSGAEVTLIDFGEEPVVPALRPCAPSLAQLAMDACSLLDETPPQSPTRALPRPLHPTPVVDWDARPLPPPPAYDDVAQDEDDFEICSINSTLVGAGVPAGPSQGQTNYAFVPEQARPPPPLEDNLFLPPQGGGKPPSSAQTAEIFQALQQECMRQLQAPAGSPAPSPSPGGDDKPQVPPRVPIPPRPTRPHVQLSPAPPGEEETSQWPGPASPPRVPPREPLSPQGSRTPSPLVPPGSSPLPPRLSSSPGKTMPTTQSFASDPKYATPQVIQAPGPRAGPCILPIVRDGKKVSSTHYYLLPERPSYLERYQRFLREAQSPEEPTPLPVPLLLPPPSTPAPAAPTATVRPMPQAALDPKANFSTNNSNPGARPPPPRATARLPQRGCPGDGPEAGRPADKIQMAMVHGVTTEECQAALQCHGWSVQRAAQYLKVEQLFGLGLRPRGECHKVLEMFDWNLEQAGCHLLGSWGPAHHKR
Sequence of BDNF/NT-3 growth factors receptor (Q16620 whole entry): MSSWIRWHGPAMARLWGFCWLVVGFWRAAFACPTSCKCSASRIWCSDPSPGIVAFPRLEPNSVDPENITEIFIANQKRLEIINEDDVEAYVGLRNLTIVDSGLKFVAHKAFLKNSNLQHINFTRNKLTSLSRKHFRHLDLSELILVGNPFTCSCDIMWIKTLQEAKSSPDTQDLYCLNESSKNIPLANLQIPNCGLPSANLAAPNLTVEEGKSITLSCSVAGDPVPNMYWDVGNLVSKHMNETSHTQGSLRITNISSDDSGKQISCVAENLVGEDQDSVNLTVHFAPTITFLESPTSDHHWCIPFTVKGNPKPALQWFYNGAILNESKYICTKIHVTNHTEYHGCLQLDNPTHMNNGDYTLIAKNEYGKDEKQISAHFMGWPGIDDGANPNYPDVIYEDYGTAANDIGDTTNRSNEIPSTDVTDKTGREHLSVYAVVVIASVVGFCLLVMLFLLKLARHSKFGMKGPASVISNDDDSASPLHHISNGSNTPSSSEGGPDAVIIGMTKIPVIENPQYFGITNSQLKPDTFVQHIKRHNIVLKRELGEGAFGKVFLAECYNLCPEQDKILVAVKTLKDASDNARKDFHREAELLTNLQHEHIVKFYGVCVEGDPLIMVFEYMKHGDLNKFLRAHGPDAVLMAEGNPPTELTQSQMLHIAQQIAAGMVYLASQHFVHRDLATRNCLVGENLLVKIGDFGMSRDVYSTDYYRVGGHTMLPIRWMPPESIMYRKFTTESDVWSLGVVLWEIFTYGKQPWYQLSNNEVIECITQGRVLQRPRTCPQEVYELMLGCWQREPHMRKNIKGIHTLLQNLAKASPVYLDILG

CCN1CCN(Cc2ccc(NC(=O)Nc3ccc(Oc4cc(NC)ncn4)cc3)cc2C(F)(F)F)CC1 [AST-487] showed a Kd [1] of over 10 µM.
Compound COCC(=O)NC/C=C/c1ccc2ncnc(Nc3ccc(Oc4ccc(C)nc4)c(C)c3)c2c1 [CP-724714] has a Kd [2] of over 10 µM, a Kd (Activated CDC42 kinase 1) of over 10 µM and a Kd (SRSF protein kinase 2) of over 10 µM. For the same compound, the Kd [3] was over 10 µM, the Kd [4] was over 10 µM and the Kd [5] was over 10 µM. The Kd (Ephrin type-B receptor 2) was over 10 µM, the Kd [1] was over 10 µM and the Kd [6] was over 10 µM.
For Nc1nc(Nc2ccc(S(N)(=O)=O)cc2)nn1C(=O)c1c(F)cccc1F [JNJ-7706621], the Kd [2] was over 10 µM, the Kd (SRSF protein kinase 2) was over 10 µM and the Kd [3] was over 10 µM. It also gave a Kd [5] of over 10 µM and a Kd (Ephrin type-B receptor 2) of over 10 µM.
CCOc1cc2ncc(C#N)c(Nc3ccc(F)c(Cl)c3)c2cc1NC(=O)/C=C/CN(C)C [PELITINIB] showed a Kd [2] of over 10 µM, a Kd (Activated CDC42 kinase 1) of 5.2 µM and a Kd (SRSF protein kinase 2) of over 10 µM. The Kd [3] was 0.31 µM, the Kd [5] was over 10 µM and the Kd (Ephrin type-B receptor 2) was over 10 µM. It also gave a Kd [1] of 2.1 µM.
Oc1ccc(-c2nc(-c3ccncc3)c(-c3ccc(F)cc3)[nH]2)cc1 [SB-202190] gave a Kd [2] of over 10 µM, a Kd (Activated CDC42 kinase 1) of over 10 µM and a Kd (SRSF protein kinase 2) of over 10 µM. The Kd [3] was 0.51 µM, the Kd [4] was over 10 µM and the Kd [5] was over 10 µM. For the same compound, the Kd (Ephrin type-B receptor 2) was over 10 µM, the Kd [1] was over 10 µM and the Kd [6] was over 10 µM.
In the case of NC(=O)c1ccc(-c2nc(-c3ccc4c(c3)OCO4)c(-c3ccccn3)[nH]2)cc1 [SB-431542], the Kd [2] is reported as over 10 µM, the Kd (Activated CDC42 kinase 1) is reported as over 10 µM and the Kd (SRSF protein kinase 2) is reported as over 10 µM. The Kd [3] was over 10 µM, the Kd [4] was over 10 µM and the Kd [5] was over 10 µM. The Kd (Ephrin type-B receptor 2) was over 10 µM, the Kd [1] was over 10 µM and the Kd [6] was over 10 µM.
